*1 amine or outer side, *2 acyl side, *3 side chain or, on linkers, in order; H or OH if unused. Where a SMILES comes first, the peptide text is derived from it. Side-chain parts run from the residue outwards. [ ]: non-standard residue; d: D form. The star is where a group is joined. C20 diacid = O=C(O)CCCCCCCCCCCCCCCCCCC(=O)*; γGlu = O=C(O)[C@H](CCC(=O)[*:2])N[*:1]; εLys = N[C@@H](CCCCN[*:1])C(=O)[*:2]; αMeL = CC(C)C[C@](C)(N)C(=O)O; AEEA = NCCOCCOCC(=O)O
Assays:
human CRHR2 = biological target: T1, human CRHR2 (Homo sapiens, UniProt Q13324); assay: Human CRHR2 cAMP assay (HTRF) in HEK293 cells stably expressing human CRHR2; assay type: cell-based; settings: HEK293 cells overexpressing human CRHR2; relative EC50, maximum 10 nM human UCN2; mean ± SE; read-out: hCRHR2 cAMP EC50 (pM, ± SE)
T1 construct: expressed in transfected cells
T1 sequence (Q13324 1-438 isoform Q13324-2): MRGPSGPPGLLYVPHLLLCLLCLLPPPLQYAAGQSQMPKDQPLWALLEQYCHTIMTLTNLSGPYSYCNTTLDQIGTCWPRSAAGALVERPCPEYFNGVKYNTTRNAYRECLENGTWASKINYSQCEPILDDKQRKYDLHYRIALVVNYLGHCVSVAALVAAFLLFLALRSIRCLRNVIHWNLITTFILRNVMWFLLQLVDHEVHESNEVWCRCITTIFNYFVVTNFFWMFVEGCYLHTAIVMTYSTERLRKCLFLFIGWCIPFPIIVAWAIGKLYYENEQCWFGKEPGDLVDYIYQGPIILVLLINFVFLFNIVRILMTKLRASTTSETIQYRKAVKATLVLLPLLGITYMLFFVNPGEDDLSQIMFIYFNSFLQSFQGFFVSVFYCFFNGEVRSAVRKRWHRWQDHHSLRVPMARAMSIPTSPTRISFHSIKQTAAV
Description: (§1) The corticotropin-releasing hormone (CRH) receptor 1 and 2 (CRHR1 and CRHR2) are GPCRs that were functionally coupled to Gs proteins. Stimulation of these receptors results in an increased production of intracellular cAMP, which can be detected using standard in vitro technologies. In vitro activity of peptides was measured by the amount of cAMP formed in human CRHR1 and CRHR2 overexpressed cells.
(§2) Human CRHR1 and CRHR2 receptors were stably expressed in human embryonic kidney cells (HEK293) under control of a pcDNA expression vector. The HEK293 cell line was cultured in DMEM 1× (Gibco, 93-0152DK) supplemented with 10% FBS, 1 mM sodium pyruvate, 1×MEM NEAA, 1× GlutaMAX and 10 mM HEPES. The plasmids of human CRHR1-pQCXIP (T7364) and human CRHR2b-R2683puro (T16761) DNA were transfected into HEK293 cells using Lipo fectAMINE 3000 Transfection reagent (Invitrogen, L3000001). After 20 days under selection, the mRNA levels from different clones were measured to confirm the expression of human CRHR1 and CRHR2 genes. To determine the function of over-expressed CRHR cells, the intracellular cAMP levels in response to human UCN1 and UCN2 were measured and compared to the expression of CRHR1 and CRHR2 mRNA in each clone.
(§3) Human CRHR1 cells were cultured in DMEM 1× (Gibco, 93-0152DK) supplemented with 10% FBS, 1 mM sodium pyruvate, 1×MEM NEAA, 1×GlutaMAX, 10 mM HEPES, and 800 μg/ml G418. Human CRHR2 cells were cultured at the same media (DMEM 1×, 10% FBS, 1 mM sodium pyruvate, 1×MEM NEAA, 1×GlutaMAX, 10 mM HEPES) in the presence of 0.5 ug/mL puromycin. Cultured cells were grown to 90% confluency and harvested. The cells were frozen at 10×10e6/ml in a mixture of […] fetal bovine serum plus 7% DMSO and stored in liquid nitrogen until use.
(§4) On the day of the assay, the frozen cells were thawed and diluted in assay buffer (Phenol Red free MEM (Corning, 17-305-CV, lot #32121010), 0.1% Casein (Sigma C4765, lot #SLCG2120), 5 mM HEPES pH 7.4 containing 0.25 mM IBMX). 10 ul of human CRHR1 cells (25,000 cells) or 10 μL of human CRHR2 cells (5,000 cells) were dispensed into each well of white poly-D-lysine coated 384-well plates (Corning cat #354661). Test compounds diluted in DMSO were added (200 nL/well) in a 1:3 dilution series using ECHO acoustic liquid handler (Beckman). The mixture of cells and test compounds were incubated at 37° C. for 1 hour for the hCRHR1 plate, while the CRHR2 plates were incubated at room temperature for 30 min.
(§5) The amount of intracellular cAMP was quantitated using HTRF technology (Homogeneous Time Resolved Fluorescence; Cisbio) as per vendor instructions. Briefly, 10 uL CAMP-d2 conjugate and 10 uL anti-CAMP-cryptate conjugate in lysis buffer were incubated with the treated cells at room temperature for 60 min. The HTRF signal was immediately detected using an Envision plate reader (Perkin-Elmer) to calculate the ratio of fluorescence at 665 to 620 nm.
(§6) Raw fluorescence data for concentration curves of the peptides in Table 2 and Table 3 were converted to cAMP amount (pmol/well) using a cAMP standard curve generated for each experiment.

human CRHR1 = biological target: T2, human CRHR1 (Homo sapiens, UniProt P34998); assay: Human CRHR1 cAMP assay (HTRF) in HEK293 cells stably expressing human CRHR1; assay type: cell-based; settings: HEK293 cells overexpressing human CRHR1; relative EC50, maximum 66 nM human UCN1; mean ± SE; read-out: hCRHR1 cAMP EC50 (pM, ± SE)
T2 construct: expressed in transfected cells
T2 sequence (P34998 24-415): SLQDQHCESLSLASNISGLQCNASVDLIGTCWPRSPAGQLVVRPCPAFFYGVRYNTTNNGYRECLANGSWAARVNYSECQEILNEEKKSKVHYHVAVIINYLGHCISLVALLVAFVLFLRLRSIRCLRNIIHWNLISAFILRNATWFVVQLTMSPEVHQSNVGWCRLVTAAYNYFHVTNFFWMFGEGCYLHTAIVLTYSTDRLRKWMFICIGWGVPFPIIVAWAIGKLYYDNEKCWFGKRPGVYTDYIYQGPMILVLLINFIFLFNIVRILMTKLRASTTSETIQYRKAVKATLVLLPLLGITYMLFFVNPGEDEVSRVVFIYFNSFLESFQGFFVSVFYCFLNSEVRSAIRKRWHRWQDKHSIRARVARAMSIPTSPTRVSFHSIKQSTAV
Description: as §1, §2, §3, §4, §5, §6

SMILES | EC50 (human CRHR2) [pM] | EC50 (human CRHR1) [pM]
CC[C@H](C)[C@H](NC(C)=O)C(=O)N[C@H](C(=O)N[C@H](C(=O)N[C@@H](CO)C(=O)N[C@@](C)(CC(C)C)C(=O)N[C@@H](CC(=O)O)C(=O)N[C@@H](C(=O)N1CCC[C@H]1C(=O)N[C@H](C(=O)NCC(=O)N[C@@](C)(CC(C)C)C(=O)N[C@@H](CC(C)C)C(=O)N[C@@H](CCC(N)=O)C(=O)N[C@H](C(=O)N[C@@H](CCCCN)C(=O)N[C@@H](CC(C)C)C(=O)N[C@@H](CCC(=O)O)C(=O)N[C@@H](CCC(N)=O)C(=O)N[C@@H](CCC(=O)O)C(=O)N[C@@H](CCCNC(=N)N)C(=O)N[C@@H](C)C(=O)N[C@@H](CCC(=O)O)C(=O)N[C@@H](CCCCN)C(=O)N[C@@H](C)C(=O)N[C@@H](CCCNC(=N)N)C(=O)N[C@@H](CCC(N)=O)C(=O)N[C@@H](CCC(N)=O)C(=O)N[C@@H](C)C(=O)N[C@@H](CCCCNC(=O)CC[C@H](NC(=O)CC[C@H](NC(=O)COCCOCCNC(=O)CCCCCCCCCCCCCCCCCCC(=O)O)C(=O)O)C(=O)O)C(=O)N[C@@H](CCC(=O)O)C(=O)N[C@@H](CC(N)=O)C(=O)N[C@H](C(=O)N[C@@H](CCC(=O)O)C(=O)N[C@H](C(=O)N[C@@H](CC(C)C)C(=O)N[C@@H](C)C(=O)N[C@@H](CCC(N)=O)C(=O)N[C@H](C(N)=O)C(C)C)[C@@H](C)CC)[C@@H](C)O)[C@@H](C)CC)[C@@H](C)O)C(C)C)[C@@H](C)O)C(C)C [SEQ ID NO: 31, Ac-IVTS αMeL D (D-Val) PTG αMeL LQIKLEQERAEKARQQAK((γE)2-(2-[2-(2-Amino-ethoxy)-ethoxy]-acetyl)-CO-(CH2)18-CO2H)ENTEILAQV-NH2] (Ac-IVTS[αMeL]D[dV]PTG[αMeL]LQIKLEQERAEKARQQAK([γGlu-γGlu-AEEA-C20 diacid])ENTEILAQV-NH2) | 4.5 ± 0.7 | > 1e+07
CC[C@H](C)[C@H](NC(C)=O)C(=O)N[C@H](C(=O)N[C@H](C(=O)N[C@@H](CO)C(=O)N[C@@](C)(CC(C)C)C(=O)N[C@@H](CC(=O)O)C(=O)N[C@@H](C(=O)N1CCC[C@H]1C(=O)N[C@H](C(=O)NCC(=O)N[C@@](C)(CC(C)C)C(=O)N[C@@H](CC(C)C)C(=O)N[C@@H](CCC(N)=O)C(=O)N[C@H](C(=O)N[C@@H](CCCCN)C(=O)N[C@@H](CC(C)C)C(=O)N[C@@H](CCC(=O)O)C(=O)N[C@@H](CCC(N)=O)C(=O)N[C@@H](CCC(=O)O)C(=O)N[C@@H](CCCNC(=N)N)C(=O)N[C@@H](C)C(=O)N[C@@H](CCC(=O)O)C(=O)N[C@@H](CCCCN)C(=O)N[C@@H](C)C(=O)N[C@@H](CCCNC(=N)N)C(=O)N[C@@H](CCC(N)=O)C(=O)N[C@@H](CCC(N)=O)C(=O)N[C@@H](C)C(=O)N[C@@H](CCCCNC(=O)COCCOCCNC(=O)[C@@H](N)CCCCNC(=O)CC[C@H](NC(=O)CCCCCCCCCCCCCCCCCCC(=O)O)C(=O)O)C(=O)N[C@@H](CCC(=O)O)C(=O)N[C@@H](CC(N)=O)C(=O)N[C@H](C(=O)N[C@@H](CCC(=O)O)C(=O)N[C@H](C(=O)N[C@@H](CC(C)C)C(=O)N[C@@H](C)C(=O)N[C@@H](CCC(N)=O)C(=O)N[C@H](C(N)=O)C(C)C)[C@@H](C)CC)[C@@H](C)O)[C@@H](C)CC)[C@@H](C)O)C(C)C)[C@@H](C)O)C(C)C [SEQ ID NO: 32, Ac-IVTS αMeL D (D-Val) PTG αMeL LQIKLEQERAEKARQQAK((2-[2-(2-Amino-ethoxy)-ethoxy]-acetyl)-ϵK-γE-CO-(CH2)18-CO2H)ENTEILAQV-NH2] (Ac-IVTS[αMeL]D[dV]PTG[αMeL]LQIKLEQERAEKARQQAK([AEEA-εLys-γGlu-C20 diacid])ENTEILAQV-NH2) | 5.4 ± 0.7 | > 1e+07
CC[C@H](C)[C@H](NC(C)=O)C(=O)N[C@H](C(=O)N[C@H](C(=O)N[C@@H](CO)C(=O)N[C@@](C)(CC(C)C)C(=O)N[C@@H](CC(=O)O)C(=O)N[C@@H](C(=O)N1CCC[C@H]1C(=O)N[C@H](C(=O)NCC(=O)N[C@@](C)(CC(C)C)C(=O)N[C@@H](CC(C)C)C(=O)N[C@@H](CCC(N)=O)C(=O)N[C@H](C(=O)N[C@@H](CCCCN)C(=O)N[C@@H](CC(C)C)C(=O)N[C@@H](CCC(=O)O)C(=O)N[C@@H](CCC(N)=O)C(=O)N[C@@H](CCC(=O)O)C(=O)N[C@@H](CCCNC(=N)N)C(=O)N[C@@H](C)C(=O)N[C@@H](CCC(=O)O)C(=O)N[C@@H](CCCCN)C(=O)N[C@@H](C)C(=O)N[C@@H](CCCNC(=N)N)C(=O)N[C@@H](CCC(N)=O)C(=O)N[C@@H](CCC(N)=O)C(=O)N[C@@H](C)C(=O)N[C@@H](CCCCNC(=O)COCCOCCNC(=O)CC[C@H](NC(=O)[C@@H](N)CCCCNC(=O)CCCCCCCCCCCCCCCCCCC(=O)O)C(=O)O)C(=O)N[C@@H](CCC(=O)O)C(=O)N[C@@H](CC(N)=O)C(=O)N[C@H](C(=O)N[C@@H](CCC(=O)O)C(=O)N[C@H](C(=O)N[C@@H](CC(C)C)C(=O)N[C@@H](C)C(=O)N[C@@H](CCC(N)=O)C(=O)N[C@H](C(N)=O)C(C)C)[C@@H](C)CC)[C@@H](C)O)[C@@H](C)CC)[C@@H](C)O)C(C)C)[C@@H](C)O)C(C)C [SEQ ID NO: 33, Ac-IVTS αMeL D (D-Val) PTG αMeL LQIKLEQERAEKARQQAK((2-[2-(2-Amino-ethoxy)-ethoxy]-acetyl)-γE-ϵK-CO-(CH2)18-CO2H)ENTEILAQV-NH2] (Ac-IVTS[αMeL]D[dV]PTG[αMeL]LQIKLEQERAEKARQQAK([AEEA-γGlu-εLys-C20 diacid])ENTEILAQV-NH2) | 4.6 ± 0.6 | 1.1e+06
